In brackets after ≈: the same amount, converted by molar mass. Read-outs that look alike come from different tables or passages of the source.
Columns and labels:
[1] = molecular target: T1, full-length beta-Catenin (Uniprot ID P35222) (Homo sapiens, UniProt P35222); experiment: Fluorescence polarization IC50 (beta-catenin / 5FAM-TCF4 10-53 competition); format: binding
T1 construct: 10 nM full-length beta-Catenin (Uniprot ID P35222)
T1 sequence (P35222 1-781): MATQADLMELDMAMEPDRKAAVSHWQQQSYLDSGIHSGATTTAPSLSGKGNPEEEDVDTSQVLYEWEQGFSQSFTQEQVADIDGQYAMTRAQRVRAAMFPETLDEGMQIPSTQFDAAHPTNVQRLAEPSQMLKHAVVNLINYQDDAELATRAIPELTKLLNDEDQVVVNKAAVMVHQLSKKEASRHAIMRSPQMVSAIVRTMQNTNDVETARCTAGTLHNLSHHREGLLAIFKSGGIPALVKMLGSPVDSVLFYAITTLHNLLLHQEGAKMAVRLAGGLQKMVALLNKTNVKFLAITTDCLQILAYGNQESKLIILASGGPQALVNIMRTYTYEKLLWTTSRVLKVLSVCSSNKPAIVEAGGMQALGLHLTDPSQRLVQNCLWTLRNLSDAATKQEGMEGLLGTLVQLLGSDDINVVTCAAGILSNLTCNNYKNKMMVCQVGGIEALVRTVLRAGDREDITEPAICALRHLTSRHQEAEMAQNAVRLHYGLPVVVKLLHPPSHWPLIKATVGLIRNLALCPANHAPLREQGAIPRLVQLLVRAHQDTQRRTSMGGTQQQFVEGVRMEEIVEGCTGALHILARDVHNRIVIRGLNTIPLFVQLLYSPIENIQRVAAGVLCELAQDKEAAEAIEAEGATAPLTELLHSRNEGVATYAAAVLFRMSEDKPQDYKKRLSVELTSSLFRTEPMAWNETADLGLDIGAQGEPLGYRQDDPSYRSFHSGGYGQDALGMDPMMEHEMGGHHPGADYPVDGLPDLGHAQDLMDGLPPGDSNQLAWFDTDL

[2] = CHI Log D procedure; format: physicochemical; settings: for CHI Log D: pH 7.4; for chromatographic logD: pH 7.4, CHI Log D
[3] = Solubility in PBS; format: physicochemical
Method in brief: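 Read-out is the HPLC peak area of the supernatant from ultracentrifuged PBS solution, scaled against a 50 μM peptide DMSO injection; value reported as [(PBS area)/(DMSO area)]*50 uM.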

[4] = fluorescence polarization, read-out: beta-Catenin FP IC50

## CC(=O)N1CCC[C@]12CC=CCCCC1(CCCC=CCCCCCC[C@@](C)(C(=O)N[C@@H](Cc3ccccc3)C(=O)N[C@@H](Cc3csc4ccccc34)C(=O)N[C@H](C(N)=O)[C@@H](C)O)NC(=O)[C@H](CCC(N)=O)NC(=O)[C@H](Cc3ccccc3)NC(=O)[C@H](C)NC(=O)[C@H](C)NC(=O)[C@H](CCC(=O)O)NC(=O)[C@H](CC(=O)O)NC1=O)NC(=O)[C@H](C)NC(=O)[C@H](CC(=O)O)NC2=O (stereo partly drawn) [I-507, Ac-PL3-Asp-Ala-B5-Asp-Glu-Ala-Ala-Phe-Gln-S8-Phe-BztA-Thr-NH2]
[1]; [4]
  IC50: 192 nM
[1]; read-out: FP EC50
  IC50: 192 nM
[2]
  CHI Log D: 2.079
[3]
  Solubility: 47 µM (≈ 85.3 µg/mL)

## CC(=O)N1CCC[C@]12CC=CCCCC1(CCCC=CCCCCCC[C@@](C)(C(=O)N[C@@H](Cc3ccccc3)C(=O)N[C@@H](Cc3csc4ccccc34)C(=O)N[C@H](C(N)=O)[C@@H](C)O)NC(=O)[C@H](CCC(N)=O)NC(=O)[C@H](Cc3ccccc3)NC(=O)[C@H](C)NC(=O)[C@H](C)NC(=O)[C@H](CCC(=O)O)NC(=O)[C@H](CC(=O)O)NC1=O)NC(=O)[C@H](C)NC(=O)[C@H](CC(=O)O)NC2=O (stereo partly drawn) [I-508, Ac-PL3-Asp-Ala-B5-Asp-Glu-Ala-Ala-Phe-Gln-S8-Phe-BztA-Thr-NH2]
[1]; [4]
  IC50: 73 nM
[1]; read-out: FP EC50
  IC50: 73 nM
[2]
  CHI Log D: 2.126
[3]
  Solubility: 50 µM (≈ 90.7 µg/mL)

## CC[C@H](NC(=O)[C@H](Cc1csc2ccccc12)NC(=O)[C@H](Cc1ccccc1)NC(=O)[C@]1(C)CCCCCCC=CCCCC2(CCCC=CC[C@]3(CCCN3C(C)=O)C(=O)N[C@@H](CC(=O)O)C(=O)N[C@@H](C)C(=O)N2)C(=O)N[C@@H](CC(=O)O)C(=O)N[C@@H](CCC(=O)O)C(=O)N[C@@H](C)C(=O)N[C@@H](C)C(=O)N[C@@H](Cc2ccccc2)C(=O)N[C@@H](CCC(N)=O)C(=O)N1)C(N)=O (stereo partly drawn) [I-509, Ac-PL3-Asp-Ala-B5-Asp-Glu-Ala-Ala-Phe-Gln-S8-Phe-BztA-Abu-NH2]
[1]; [4]
  IC50: 99 nM
[2]
  chromatographic logD: 2.16
[3]; Solubility (uM)
  Solubility: 41 µM (≈ 73.7 µg/mL)

## COc1ccccc1C[C@H](NC(=O)[C@]1(C)CCCCCCC=CCCCC2(CCCC=CC[C@]3(CCCN3C(C)=O)C(=O)N[C@@H](CC(=O)O)C(=O)N[C@@H](C)C(=O)N2)C(=O)N[C@@H](CC(=O)O)C(=O)N[C@@H](CCC(=O)O)C(=O)N[C@@H](C)C(=O)N[C@@H](C)C(=O)N[C@@H](Cc2ccccc2)C(=O)N[C@@H](CC(N)=O)C(=O)N1)C(=O)N[C@@H](Cc1csc2ccccc12)C(=O)N[C@@H](Cc1c[nH]cn1)C(N)=O (stereo partly drawn) [I-510, Ac-PL3-Asp-Ala-B5-Asp-Glu-Ala-Ala-Phe-Asn-S8-2OMeF-BztA-His-NH2]
[1]; [4]
  IC50: 128 nM
[1]; read-out: FP EC50
  IC50: 128 nM
[2]
  CHI Log D: 2.057
[3]
  Solubility: 43 µM (≈ 80.2 µg/mL)

## COc1ccccc1C[C@H](NC(=O)[C@]1(C)CCCCCCC=CCCCC2(CCCC=CC[C@]3(CCCN3C(C)=O)C(=O)N[C@@H](CC(=O)O)C(=O)N[C@@H](C)C(=O)N2)C(=O)N[C@@H](CC(=O)O)C(=O)N[C@@H](CCC(=O)O)C(=O)N[C@@H](C)C(=O)N[C@@H](C)C(=O)N[C@@H](Cc2ccccc2)C(=O)N[C@@H](CC(N)=O)C(=O)N1)C(=O)N[C@@H](Cc1csc2ccccc12)C(=O)N[C@@H](Cc1c[nH]cn1)C(N)=O (stereo partly drawn) [I-511, Ac-PL3-Asp-Ala-B5-Asp-Glu-Ala-Ala-Phe-Asn-S8-2OMeF-BztA-His-NH2]
[1]; [4]
  IC50: 40 nM
[1]; read-out: FP EC50
  IC50: 40 nM
[2]
  CHI Log D: 2.099
[3]
  Solubility: 29 µM (≈ 54.1 µg/mL)

## CC(=O)N1CCC[C@]12CC=CCCCC1(CCCC=CCCCCCC[C@@](C)(C(=O)N[C@@H](Cc3ccccc3C(N)=O)C(=O)N[C@@H](Cc3csc4ccccc34)C(=O)N[C@@H](Cc3c[nH]cn3)C(N)=O)NC(=O)[C@H](CC(N)=O)NC(=O)[C@H](Cc3ccccc3)NC(=O)[C@H](C)NC(=O)[C@H](C)NC(=O)[C@H](CCC(=O)O)NC(=O)[C@H](CC(=O)O)NC1=O)NC(=O)[C@H](C)NC(=O)[C@H](CC(=O)O)NC2=O (stereo partly drawn) [I-513, Ac-PL3-Asp-Ala-B5-Asp-Glu-Ala-Ala-Phe-Asn-S8-2CBMF-BztA-His-NH2]
[1]; [4]
  IC50: 143 nM
[2]
  chromatographic logD: 1.57
[3]
  Solubility: 50 µM (≈ 94 µg/mL)

## CC(=O)N1CCC[C@]12CC=CCCCC1(CCCC=CCCCCCC[C@@](C)(C(=O)N[C@@H](Cc3ccsc3)C(=O)N[C@@H](Cc3csc4ccccc34)C(=O)N[C@@H](Cc3c[nH]cn3)C(N)=O)NC(=O)[C@H](CC(N)=O)NC(=O)[C@H](Cc3ccccc3)NC(=O)[C@H](C)NC(=O)[C@H](C)NC(=O)[C@H](CCC(=O)O)NC(=O)[C@H](CC(=O)O)NC1=O)NC(=O)[C@H](C)NC(=O)[C@H](CC(=O)O)NC2=O (stereo partly drawn) [I-515, Ac-PL3-Asp-Ala-B5-Asp-Glu-Ala-Ala-Phe-Asn-S8-3Thi-BztA-His-NH2]
[1]; [4]
  IC50: 54 nM
[1]; read-out: FP EC50
  IC50: 54 nM
[2]
  CHI Log D: 2.028
[3]
  Solubility: 46 µM (≈ 84.7 µg/mL)

## CC(=O)N1CCC[C@]12CC=CCCCC1(CCCC=CCCCCCC[C@@](C)(C(=O)N[C@@H](Cc3ccsc3)C(=O)N[C@@H](Cc3csc4ccccc34)C(=O)N[C@@H](Cc3c[nH]cn3)C(N)=O)NC(=O)[C@H](CC(N)=O)NC(=O)[C@H](Cc3ccccc3)NC(=O)[C@H](C)NC(=O)[C@H](C)NC(=O)[C@H](CCC(=O)O)NC(=O)[C@H](CC(=O)O)NC1=O)NC(=O)[C@H](C)NC(=O)[C@H](CC(=O)O)NC2=O (stereo partly drawn) [I-516, Ac-PL3-Asp-Ala-B5-Asp-Glu-Ala-Ala-Phe-Asn-S8-3Thi-BztA-His-NH2]
[1]; [4]
  IC50: 23 nM
[1]; read-out: FP EC50
  IC50: 23 nM
[2]
  CHI Log D: 2.072
[3]
  Solubility: 42 µM (≈ 77.4 µg/mL)

## CC(=O)N1CCC[C@]12CC=CCCCC1(CCCC=CCCCCCC[C@@](C)(C(=O)N[C@@H](Cc3ccsc3)C(=O)N[C@@H](Cc3csc4ccccc34)C(=O)N[C@@H](CCC(N)=O)C(N)=O)NC(=O)[C@H](CC(N)=O)NC(=O)[C@H](Cc3ccccc3)NC(=O)[C@H](C)NC(=O)[C@H](C)NC(=O)[C@H](CCC(=O)O)NC(=O)[C@H](CC(=O)O)NC1=O)NC(=O)[C@H](C)NC(=O)[C@H](CC(=O)O)NC2=O (stereo partly drawn) [I-518, Ac-PL3-Asp-Ala-B5-Asp-Glu-Ala-Ala-Phe-Asn-S8-3Thi-BztA-Gln-NH2]
[1]; [4]
  IC50: 143 nM
[1]; read-out: FP EC50
  IC50: 143 nM
[2]
  CHI Log D: 1.966
[3]
  Solubility: 39 µM (≈ 71.5 µg/mL)

## CC[C@H](C)[C@@H]1NC(=O)[C@H](CC(=O)O)NC(=O)[C@]2(CC=CCCCC3(CCCC=CCCCCCC[C@@](C)(C(=O)N[C@@H](Cc4ccsc4)C(=O)N[C@@H](Cc4csc5ccccc45)C(=O)N[C@@H](CCC(N)=O)C(N)=O)NC(=O)[C@H](CC(N)=O)NC(=O)[C@H](Cc4ccccc4)NC(=O)[C@H](C)NC(=O)[C@H](C)NC(=O)[C@H](CCC(=O)O)NC(=O)[C@H](CC(=O)O)NC3=O)NC1=O)CCCN2C(C)=O (stereo partly drawn) [I-520, Ac-PL3-Asp-Ile-B5-Asp-Glu-Ala-Ala-Phe-Asn-S8-3Thi-BztA-Gln-NH2]
[1]; [4]
  IC50: 45 nM
[1]; read-out: FP EC50
  IC50: 45 nM
[2]
  CHI Log D: 2.313
[3]
  Solubility: 50 µM (≈ 93.8 µg/mL)

## CCC[C@@H]1NC(=O)[C@H](CC(=O)O)NC(=O)[C@]2(CC=CCCCC3(CCCC=CCCCCCC[C@@](C)(C(=O)N[C@@H](Cc4ccccc4)C(=O)N[C@@H](Cc4csc5ccccc45)C(=O)N[C@@H](CCC(N)=O)C(N)=O)NC(=O)[C@H](CCC(N)=O)NC(=O)[C@H](Cc4ccccc4)NC(=O)[C@H](C)NC(=O)[C@H](C)NC(=O)[C@H](CCC(=O)O)NC(=O)[C@H](CC(=O)O)NC3=O)NC1=O)CCCN2C(C)=O (stereo partly drawn) [I-522, Ac-PL3-Asp-Nva-B5-Asp-Glu-Ala-Ala-Phe-Gln-S8-Phe-BztA-Gln-NH2]
[1]; [4]
  IC50: 75 nM
[1]; read-out: FP EC50
  IC50: 75 nM
[2]
  CHI Log D: 2.214
[3]
  Solubility: 50 µM (≈ 93.5 µg/mL)

## CCC[C@@H]1NC(=O)[C@H](CC(=O)O)NC(=O)[C@]2(CC=CCCCC3(CCCC=CCCCCCC[C@@](C)(C(=O)N[C@@H](Cc4ccccc4)C(=O)N[C@@H](Cc4csc5ccccc45)C(=O)N[C@@H](CCC(N)=O)C(N)=O)NC(=O)[C@H](CCC(N)=O)NC(=O)[C@H](Cc4ccccc4)NC(=O)[C@H](C)NC(=O)[C@H](C)NC(=O)[C@H](CCC(=O)O)NC(=O)[C@H](CC(=O)O)NC3=O)NC1=O)CCCN2C(C)=O (stereo partly drawn) [I-523, Ac-PL3-Asp-Nva-B5-Asp-Glu-Ala-Ala-Phe-Gln-S8-Phe-BztA-Gln-NH2]
[1]; [4]
  IC50: 44 nM
[1]; read-out: FP EC50
  IC50: 44 nM
[2]
  CHI Log D: 2.241
[3]
  Solubility: 50 µM (≈ 93.5 µg/mL)

From US20240116985A1, “STAPLED PEPTIDES AND METHODS THEREOF” (priority 2020, published 2024)
